A short description of experiment [1]: Alcohol concentration in mouse serum. The format is in vivo, mice. To be noted: EK100 1, 5, 10 mg/kg/day vs EtOH group; p<0.05; FIG. 15. How it is done:
C-3. At the end of week 4, the mice were fasted for 8 hours. Then, mice blood was collected by orbital sinus blood collection with capillary blood collection needles (for all of the 8 mice from each group). The mice blood was left standing for 1 hour and then centrifuged by a refrigerated microcentrifuge (Kubota corporation, model number: 3700) to separate the supernatant serum. The supernatant serum was stored at −80° C. for the following analysis.
Mouse serum samples of each group provided in [Preparation Examples] C-2 were well mixed with ADH and NAD^+ reagents in a commercial kit (Dade-Berhring company, England, Emit® II Plus Ethyl alcohol assay), and then the alcohol concentrations in the above serum samples were measured by an automatic biochemistry analyzer (Olympus company, Japan, AU2700) at 340 nm wavelength.

Experiment [2] relates to male C57BL/6 mice. Nature of the experiment: Amounts of TAG, TC and bile acid in feces. The format is in vivo. Particulars: EK100 1, 5, 10 mg/kg/day vs EtOH group, feces of end of week 3, p<0.05.
Experiment [3] concerns alanine aminotransferase (ALT). Nature of the experiment: Activity of ALT in serum. The format is in vivo, mice. Particulars: EK100 5 and 10 mg/kg/day (EK100_5X, EK100_10X) vs EtOH group; p<0.05; FIG. 8. An excerpt:
It has been known that both aspartate aminotransferase (AST) and alanine aminotransferase (ALT) are amino acid metabolic enzymes, which are widely present in the heart, liver, skeletal muscle, kidney and brain. When cells in organs are injured, AST and ALT will be released into the blood. Therefore, the activities of AST and ALT can be used as the injury markers of the above organs to detect organ injuries, wherein the higher activities of AST and ALT represent that organ injuries are more serious. For example, there is much more ALT in the liver. A higher activity of ALT in the liver would indicate a more serious injury.
To understand the effects of alcohol consumption and ergostatrien-3β-ol intake on the injury conditions of mice organs, mouse serum samples of each group provided in [Preparation Examples] C-2 (200 μl per group) were placed into automatic dry-biochemistry analyzer (Arkray, Inc., Japan, Spotechem™ EZ, SP-4430) with AST/ALT expert analytic test paper (Arkray, Inc., Japan, Spotechem™ II) to detect the activities of AST and ALT.

The subject of experiment [4] is TNF-α. Nature of the experiment: Concentration of TNF-α in liver (ELISA). To be noted: EK100 1, 5, 10 mg/kg/day vs EtOH group; p<0.05; FIG. 9A. The format is in vivo, mice. An excerpt:
(§1) D-3 were taken and diluted with Calibrator Diluent RD 5-17 to ⅓ of the original concentration respectively, and then a Quantikine® Rat TNF-α or a Quantikine® Rat IL-1β commercial kit (purchased from R&D Systems company, United States) was used for the Enzyme-linked immune-sorption assay (ELISA) to measure the amounts of tumor necrosis factor-alpha (TNF-α) and interleukin-1β (IL-1β) therein. […]
In general terms: An ELISA detects its analyte on a solid surface through an enzyme-linked reagent.

In experiment [5] the test system is acetaldehyde dehydrogenase (ALDH). Description: Activity of ALDH in liver homogenate. The format is in vivo, mice. Particulars: EK100 1, 5, 10 mg/kg/day vs control group; p<0.05; FIG. 14B. How it is done:
D-3 were analyzed. The operation steps were as follows: (i) 100 μl of liver homogenate and 1 ml of sodium pyrophosphate buffer (pH 8.8, 1 mM NAD^+, 0.2 mM 4-methylpyrazole, 1 mM MgCl2, 2 μM rotenone, 1% Triton X-100) were well mixed; the mixture was left standing in the dark at room temperature for 20 minutes; and then the absorbance (A) of the mixture was measured at 340 nm wavelength; (ii) 100 μl of liver homogenate and 1 ml of sodium pyrophosphate buffer (pH 8.8, 1 mM NAD^+, 0.2 mM 4-methylpyrazole, 1 mM MgCl2, 2 μM rotenone, 1% Triton X-100, 5 mM acetaldehyde) were well mixed; the mixture was left standing in the dark at room temperature for 20 minutes, and then the absorbance (B) of the mixture was measured at 340 nm wavelength; (iii) absorbance (A) and absorbance (B) were substituted into formula 3 below to calculate the activity of ALDH (μmole/min/mg protein).

Experiment [6] concerns IL-1β. Description: Concentration of IL-1β in liver (ELISA). To be noted: EK100 1, 5, 10 mg/kg/day vs EtOH group; p<0.05; FIG. 9B. It is filed as in vivo, mice.
Source text: as §1

For experiment [7], the system named is catalase (CAT). Nature of the experiment: Activity of CAT in mouse liver. The format is in vivo, mice. Particulars: for Activity of CAT: liver homogenate, alcoholic liquid diet, 4 weeks.
Experiment [8] deals with Superoxide dismutase (SOD). Nature of the experiment: Activity of SOD in mouse liver. The format is in vivo, mice. To be noted: for Activity of SOD: liver homogenate, alcoholic liquid diet, 4 weeks.
Experiment [9] deals with ADH, ALDH, CYP2E1, CAT. Description: Gene expressions of alcohol metabolism-related enzymes in liver (real-time PCR). It is filed as in vivo, mice. To be noted: EK100 1, 5, 10 mg/kg/day vs EtOH group; p<0.05; FIG. 12. A general note: In qPCR the cycle at which signal appears reflects the starting amount.
Protocol: C-4 was put into a 0.8 ml RNAlater containing an RNA stabilizer (Qiagen company, United States), and then the commercial kit (E.Z.N.A™ Tissue RNA kit, purchased from Omega Bio-Tek company, United States) was used to extract the mRNA therein. After that, the mRNA sample obtained therefrom was reverse transcribed to provide cDNA, and then specific primers (as shown in Table 2) were used to conduct real-time polymerase chain reaction (real-time PCR) of the cDNA to observe the expression of each gene in the mouse liver, wherein the operation steps of the real-time polymerase chain reaction were as follows: (i) 2 μl of cDNA (50 ng/μl), 5 μl of SYBR Green (Molecular Probes company, United States, Applied Biosystems/Fast SYBR® Green Master Mix), 2 μl of RNase-free water, 1 μl of forward primer, and 1 μl of reverse primer were well mixed and then centrifuged; (ii) the above sample was put into a real-time polymerase chain reaction system (Applied Biosystems/StepOne Real time PCR system) to detect the expression of each gene, wherein the expression of GAPDH was used as the positive control.
The expressions of alcohol metabolism-related enzymes (i.e., ADH, ALDH, CYP2E1, and CAT) in mouse liver of each group were compared by the analysis method of [Preparation Examples]

Marks after values point to notes of the source that are not given here.

In the case of `CC(C)[C@@H](C)/C=C/[C@@H](C)[C@H]1CC[C@H]2C3=CCC4C[C@@H](O)CC[C@]4(C)C3=CC[C@]12C` (some centres unmarked) [EK100], the “Alcohol concentration in serum compared to EtOH” value in [1] is listed as “significantly decreased”. Moreover, the “Amount of TAG in feces compared to EtOH” value in experiment [2] (FIG. 2C) is “significantly increased”. Moreover, the “Amount of TC in feces compared to EtOH” value in [2] (FIG. 2C) is listed as “significantly increased”. The “Amount of bile acid in feces compared to EtOH” value in [2] (FIG. 3) is given as “significantly increased”. Also, the “Activity of ALT in serum compared to EtOH” value in [3] is reported as “significantly decreased”. In addition, the “Concentration of TNF-α in liver compared to EtOH” value in experiment [4] is “significantly decreased”. Besides, the “Activity of ALDH in liver compared to control” value in experiment [5] is listed as “significantly increased”. Also, the “Concentration of IL-1β in liver compared to EtOH” value in experiment [6] is “significantly decreased”. In addition, in experiment [7] (EK100 1, 5, 10 mg/kg/day vs EtOH group, p<0.05), the “Activity of CAT in liver compared to EtOH” value is “significantly increased”. Moreover, the “Activity of CAT” value in experiment [7] (EK100_1X: 1 mg/kg/day gavage) was 175.80 ± 6.89^a unit/mg protein; in experiment [7] (EK100_5X: 5 mg/kg/day gavage), 145.43 ± 5.77^b unit/mg protein; in experiment [7] (EK100_10X: 10 mg/kg/day gavage), 137.16 ± 6.79^bc unit/mg protein. Also, the “Activity of SOD in liver compared to EtOH” value in experiment [8] (EK100 10 mg/kg/day (EK100_10X) vs EtOH group, p<0.05) is reported as “significantly increased”. The “Activity of SOD” value is given as 77.56 ± 3.33^c munit/mg protein in experiment [8] (EK100_1X: 1 mg/kg/day gavage), 90.40 ± 6.16^b munit/mg protein in experiment [8] (EK100_5X: 5 mg/kg/day gavage) and 118.47 ± 4.64^a munit/mg protein in experiment [8] (EK100_10X: 10 mg/kg/day gavage). The “Gene expression of ADH in liver compared to EtOH” value in experiment [9] was “significantly increased”. The “Gene expression of ALDH in liver compared to EtOH” value in [9] is “significantly increased”. Also, in experiment [9], the “Gene expression of CAT in liver compared to EtOH” value is on record as “significantly increased”. For the same compound, the “Gene expression of CYP2E1 in liver compared to EtOH” value in experiment [9] is on record as “significantly decreased”.

Source of the values: patent US20170216315A1 (priority 2016, published 2017).
